Reference: ChEMBL document CHEMBL5625253, “Discovery of novel benzofuran-based derivatives as acetylcholinesterase inhibitors for the treatment of Alzheimer's disease: Design, synthesis, biological evaluation, molecular docking and 3D-QSAR investigation” (Eur J Med Chem, 2023)
Active and inactive are the calls of the source. The calls are words filed in the database; no cut-off is given here.

Assays:
[1] = Antioxidant activity assessed as DPPH radical scavenging activity at 0.01 ug/ml incubated for 1 hr under dark condition by absorbance based assay relative to control; assay type: functional; details: dose 0.01 µg/ml
[2] = Antioxidant activity assessed as DPPH radical scavenging activity at 0.05 ug/ml incubated for 1 hr under dark condition by absorbance based assay relative to control; assay type: functional; details: dose 0.05 µg/ml
[3] = molecular target: Acetylcholinesterase (Homo sapiens, UniProt P22303); experiment: Inhibition of AChE (unknown origin) using […] as substrate incubated for 15 to 20 mins by DTNB reagent based Ellman's method
Sequence of Acetylcholinesterase (P22303 whole entry): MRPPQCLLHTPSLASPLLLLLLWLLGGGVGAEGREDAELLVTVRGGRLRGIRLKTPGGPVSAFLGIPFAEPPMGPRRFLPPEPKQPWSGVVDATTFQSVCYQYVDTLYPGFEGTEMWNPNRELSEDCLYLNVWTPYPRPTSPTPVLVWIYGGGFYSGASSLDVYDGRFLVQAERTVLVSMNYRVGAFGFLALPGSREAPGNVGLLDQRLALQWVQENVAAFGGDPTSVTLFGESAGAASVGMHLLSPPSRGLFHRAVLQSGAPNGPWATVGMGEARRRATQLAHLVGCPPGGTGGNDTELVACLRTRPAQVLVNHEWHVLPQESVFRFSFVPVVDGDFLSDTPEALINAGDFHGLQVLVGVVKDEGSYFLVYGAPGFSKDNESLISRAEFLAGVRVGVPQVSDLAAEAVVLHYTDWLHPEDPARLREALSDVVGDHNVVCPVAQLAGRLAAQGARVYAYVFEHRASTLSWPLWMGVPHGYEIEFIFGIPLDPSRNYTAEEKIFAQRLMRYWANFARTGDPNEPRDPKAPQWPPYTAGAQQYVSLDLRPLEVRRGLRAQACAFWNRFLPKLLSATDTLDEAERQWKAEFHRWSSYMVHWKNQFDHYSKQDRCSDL

[4] = Toxicity in Wistar rat assessed as albumin level in liver at 10 mg/kg,po (reference value: 3.28 +/- 0.43 mg/dl); assay type: organism-based; details: in vivo
[5] = Toxicity in Wistar rat assessed as […] cell volume in blood at 10 mg/kg,po (reference value: 43 +/- 3.1 %); assay type: organism-based; details: in vivo
[6] = Toxicity in Wistar rat assessed as histopathological change in kidney at 10 mg/kg,po by hematoxylin and eosin staining based microscopic analysis; assay type: organism-based; details: in vivo
[7] = Toxicity in Wistar rat assessed as mean platelet volume in blood at 10 mg/kg,po (reference value: 7.3 +/- 0.12 fL); assay type: organism-based; details: in vivo
[8] = Toxicity in Wistar rat assessed as ALP level in liver at 10 mg/kg,po (reference value: 140 +/- 6 U/L); assay type: organism-based; details: in vivo
[9] = Acute toxicity in Wistar rat assessed as mortality at 50 mg/kg,po observed after 24 hrs; assay type: organism-based; details: in vivo
[10] = test system: Rattus norvegicus; experiment: Antialzheimer activity against AlCl3-induced Alzheimer's disease Wistar albino rat model assessed as MDA level in brain at 10 mg/kg,po for 6 weeks; assay type: functional
[11] = test system: Rattus norvegicus; experiment: Antialzheimer activity against AlCl3-induced Alzheimer's disease Wistar albino rat model assessed as time taken to reach the food at 10 mg/kg,po for 6 weeks by T-maze test; assay type: functional
[12] = Acute toxicity in Wistar rat assessed as loose bowels at 10 mg/kg,po administrated for 1 month; assay type: organism-based; details: in vivo, 730 h, time 1 months
[13] = Acute toxicity in Wistar rat assessed as mortality at 100 mg/kg,po observed after 1 month; assay type: organism-based; details: in vivo, 730 h, time 1 months
[14] = test system: Rattus norvegicus; experiment: Antialzheimer activity against AlCl3-induced Alzheimer's disease Wistar albino rat model assessed as decrease in cellular density in hippocampal region of brain at 10 mg/kg,po for 6 weeks by hematoxylin and eosin staining based microscopic analysis; assay type: functional, organism-based
[15] = Toxicity in Wistar rat assessed as Kupffer cell proliferation in liver at 10 mg/kg,po by hematoxylin and eosin staining based microscopic analysis; assay type: organism-based; details: in vivo
[16] = Toxicity in Wistar rat assessed as bilirubin level in liver at 10 mg/kg,po (reference value: 0.6 +/- 0.08 mg/dl); assay type: organism-based; details: in vivo
[17] = Acute toxicity in Wistar rat assessed as mortality at 100 mg/kg,po observed after 24 hrs; assay type: organism-based; details: in vivo
[18] = test system: Rattus norvegicus; experiment: Antialzheimer activity against AlCl3-induced Alzheimer's disease Wistar albino rat model assessed as change in MDA level in brain at 10 mg/kg,po for 6 weeks relative to control; assay type: functional
[19] = test system: Rattus norvegicus; experiment: Antialzheimer activity against AlCl3-induced Alzheimer's disease Wistar albino rat model assessed as degeneration of pyramidal neurons in hippocampus at 10 mg/kg,po for 6 weeks by hematoxylin and eosin staining based microscopic analysis; assay type: functional
[20] = test system: Rattus norvegicus; experiment: Antialzheimer activity against AlCl3-induced Alzheimer's disease Wistar albino rat model assessed as change in GSH level in brain at 10 mg/kg,po for 6 weeks relative to control; assay type: functional
[21] = Toxicity in Wistar rat assessed as mean corpuscular hemoglobin concentration in blood at 10 mg/kg,po (reference value: 33.8 +/- 2.1 g/dl); assay type: organism-based; details: in vivo
[22] = Acute toxicity in Wistar rat assessed as mortality at 10 mg/kg,po administrated for 1 month; assay type: organism-based; details: in vivo, 730 h, time 1 months
[23] = Toxicity in Wistar rat assessed as hemoglobin level in blood at 10 mg/kg,po (reference value: 14.5 +/- 1 g/dl); assay type: organism-based; details: in vivo
[24] = test system: Rattus norvegicus; experiment: Antialzheimer activity against AlCl3-induced Alzheimer's disease Wistar albino rat model assessed as gliosis at 10 mg/kg,po for 6 weeks by hematoxylin and eosin staining based microscopic analysis; assay type: functional
[25] = Toxicity in Wistar rat assessed as glucose level in liver at 10 mg/kg,po (reference value: 105 +/- 8.44 mg/dl); assay type: organism-based; details: in vivo
[26] = Toxicity in Wistar rat assessed as urea level in liver at 10 mg/kg,po (reference value: 33.6 +/- 2.65 mg/dl); assay type: organism-based; details: in vivo
[27] = Toxicity in Wistar rat assessed as red blood cell distribution width in blood at 10 mg/kg,po (reference value: 17.2 +/- 0.22 %); assay type: organism-based; details: in vivo
[28] = test system: Rattus norvegicus; experiment: Antialzheimer activity against AlCl3-induced Alzheimer's disease Wistar albino rat model assessed as improvement in MDA level in brain at 10 mg/kg,po for 6 weeks relative to control; assay type: functional
[29] = Toxicity in Wistar rat assessed as mean corpuscular hemoglobin in blood at 10 mg/kg,po (reference value: 19 +/- 1.77 pg); assay type: organism-based; details: in vivo
[30] = Toxicity in Wistar rat assessed as haematocrit level in blood at 10 mg/kg,po (reference value: 38.16 +/- 2.44 %); assay type: organism-based; details: in vivo
[31] = test system: Rattus norvegicus; experiment: Antialzheimer activity against AlCl3-induced Alzheimer's disease Wistar albino rat model assessed as improvement in GSH level in brain at 10 mg/kg,po for 6 weeks relative to control; assay type: functional
[32] = Toxicity in Wistar rat assessed as RBC level in blood at 10 mg/kg,po; assay type: organism-based, Erythrocyte; details: in vivo
[33] = test system: Rattus norvegicus; experiment: Antialzheimer activity against AlCl3-induced Alzheimer's disease Wistar albino rat model assessed as improvement in cognitive ability at 10 mg/kg,po for 6 weeks by T-maze test; assay type: functional
[34] = Toxicity in Wistar rat assessed as mean corpuscular volume in blood at 10 mg/kg,po (reference value: 59 +/- 5 fL); assay type: organism-based; details: in vivo
[35] = Toxicity in Wistar rat assessed as ALT level in liver at 10 mg/kg,po (reference value: 27 +/- 2 U/L); assay type: organism-based; details: in vivo
[36] = Toxicity in Wistar rat assessed as histopathological change in brain at 10 mg/kg,po by hematoxylin and eosin staining based microscopic analysis; assay type: organism-based; details: in vivo
[37] = Toxicity in Wistar rat assessed as creatinine level in liver at 10 mg/kg,po (reference value: 0.68 +/- 0.03 mg/dl); assay type: organism-based; details: in vivo
[38] = test system: Rattus norvegicus; experiment: Antialzheimer activity against AlCl3-induced Alzheimer's disease Wistar albino rat model assessed as GSH level in brain at 10 mg/kg,po for 6 weeks; assay type: functional
[39] = Toxicity in Wistar rat assessed as AST level in liver at 10 mg/kg,po (reference value: 67 +/- 5.1 U/L); assay type: organism-based; details: in vivo
[40] = Toxicity in Wistar rat assessed as histopathological change in heart at 10 mg/kg,po by hematoxylin and eosin staining based microscopic analysis; assay type: organism-based; details: in vivo
[41] = Acute toxicity in Wistar rat assessed as mortality at 50 mg/kg,po observed after 1 month; assay type: organism-based; details: in vivo, 730 h, time 1 months

In the case of `NS(=O)(=O)c1ccc(N/C=C/C(=O)c2cc3ccccc3o2)cc1`, the Activity [1] is reported as 18.4%, the Activity [2] is reported as 13% and the IC50 [3] is reported as 882 nM.
Compound `Cc1cc(NS(=O)(=O)c2ccc(N/C=C/C(=O)c3cc4ccccc4o3)cc2)no1` has an Activity [1] of 71.7%, an Activity [2] of 65.2% and an IC50 [3] of 283 nM.
Work on `O=C(/C=C/Nc1ccc(Br)cc1)c1cc2ccccc2o1` yielded an Activity [1] of 22.2%, an Activity [2] of 27% and an IC50 [3] of 1100 nM.
For `O=C(O)c1ccc(N/C=C/C(=O)c2cc3ccccc3o2)cc1`, the Activity [1] was 5.71%, the Activity [2] was 35% and the IC50 [3] was 794 nM.
With `O=C(/C=C/Nc1ccccc1O)c1cc2ccccc2o1` the Activity [1] was 65.5%, the Activity [2] was 90% and the IC50 [3] was 308 nM.
`CC(=O)c1ccc(N/C=C/C(=O)c2cc3ccccc3o2)cc1` gave an Activity [1] of 10%, an Activity [2] of 27% and an IC50 [3] of 5910 nM.
Compound `O=C(O)c1cccc(N/C=C/C(=O)c2cc3ccccc3o2)c1` has an Activity [1] of 22.5%, an Activity [2] of 65% and an IC50 [3] of 3770 nM.
`Cc1ccc(N/C=C/C(=O)c2cc3ccccc3o2)cc1` showed an Activity [1] of 21.3%, an Activity [2] of 40% and an IC50 [3] of 397 nM.
In the case of `CC(=O)c1cccc(N/C=C/C(=O)c2cc3ccccc3o2)c1`, the Activity [4] is reported as 3.3 mg/dL, the Activity [5] is reported as 42.16% and the Activity [6] is reported as “Non-Toxic”. For the same compound, the Activity [7] was 6.9 fL, the Activity [8] was 136 U/L and the Activity [1] was 63.1%. For the same compound, the Activity [2] was 67.6%, the Activity [9] was “Non-Toxic” and the IC50 [3] was 190 nM. The Activity [10] was 57.14 nmol, the Time [11] was 27 s and the Activity [12] was “Non-Toxic”. For the same compound, the Activity [13] was “Non-Toxic”, the Activity [14] was “Active” and the Activity [15] was “Non-Toxic”. It also gave an Activity [16] of 0.67 mg/dL, a mortality at 24 h [17] of 25% and an Activity [18] of 103.35%. It also gave an Activity [19] of less than 10%, an Activity [20] of 24.09% and an Activity [21] of 31 g/dL. The Activity [22] was “Non-Toxic”, the Activity [23] was 14.8 g/dL and the Activity [24] was less than 10%. It also gave an Activity [25] of 115 mg/dL, an Activity [26] of 32 mg/dL and an Activity [27] of 16.6%. The Activity [28] was 242.95%, the Activity [29] was 18.6 pg and the Activity [30] was 39.4%. For the same compound, the Activity [31] was 26.98%, the Activity [32] was 6.29 10^6/µL and the Activity [33] was 107.04%. For the same compound, the Activity [34] was 56 fL, the Activity [35] was 29 U/L and the Activity [36] was “Non-Toxic”. For the same compound, the Activity [37] was 0.72 mg/dL, the Activity [38] was 16.32 mg and the Activity [39] was 68 U/L. The Activity [40] was “Non-Toxic” and the Activity [41] was “Non-Toxic”.
In the case of `CN(C)/C=C/C(=O)c1cc2ccccc2o1`, the Activity [1] is reported as 11.4%, the Activity [2] is reported as 56.4% and the IC50 [3] is reported as 2690 nM.
Work on `O=C1O[C@H]([C@@H](O)CO)C(O)=C1O` yielded an Activity [1] of 81% and an Activity [2] of 89%.
With `N=C(N)NS(=O)(=O)c1ccc(N/C=C/C(=O)c2cc3ccccc3o2)cc1` the Activity [1] was 25%, the Activity [2] was 35% and the IC50 [3] was 908 nM.
Compound `O=C(/C=C/Nc1cccc(Br)c1)c1cc2ccccc2o1` has an Activity [1] of 9.29%, an Activity [2] of 17.9% and an IC50 [3] of 313 nM.
Work on `O=C(/C=C/Nc1ccccc1C(=O)O)c1cc2ccccc2o1` yielded an Activity [1] of 23.5%, an Activity [2] of 65% and an IC50 [3] of 2070 nM.
`COc1cc2c(cc1OC)C(=O)C(CC1CCN(Cc3ccccc3)CC1)C2` (configuration not stated) [DONEPEZIL] showed an Activity [1] of 20.4%, an Activity [2] of 30.2% and an Activity [10] of 47.17 nmol. The Time [11] was 26 s, the Activity [18] was 67.86% and the Activity [19] was less than 10%. It also gave an Activity [20] of 18.05%, an Activity [24] of less than 10% and an Activity [28] of 278.43%. For the same compound, the Activity [31] was 33.02%, the Activity [33] was 112.14% and the Activity [38] was 17.62 mg.
Compound `O=C(/C=C/Nc1cccc([N+](=O)[O-])c1)c1cc2ccccc2o1` has an Activity [1] of 76.1%, an Activity [2] of 82.6% and an IC50 [3] of 736 nM.
`CCOC(=O)c1ccc(N/C=C/C(=O)c2cc3ccccc3o2)cc1` showed an Activity [1] of 21.4%, an Activity [2] of 28.6% and an IC50 [3] of 2130 nM.
Work on `O=C(/C=C/Nc1ccc(Cl)cc1)c1cc2ccccc2o1` yielded an Activity [1] of 28.2%, an Activity [2] of 65.3% and an IC50 [3] of 2140 nM.
Compound `O=C(/C=C/Nc1ccc(S(=O)(=O)Nc2ncccn2)cc1)c1cc2ccccc2o1` has an Activity [1] of 5%, an Activity [2] of 37.5% and an IC50 [3] of 357 nM.
`O=C(/C=C/Nc1ccc(F)cc1)c1cc2ccccc2o1` gave an Activity [1] of 73.9%, an Activity [2] of 76.1% and an IC50 [3] of 487 nM.
With `Cc1cccc(N/C=C/C(=O)c2cc3ccccc3o2)c1` the Activity [1] was 12.1%, the Activity [2] was 14.3% and the IC50 [3] was 617 nM.
In the case of `O=C(/C=C/Nc1ccc(S(=O)(=O)Nc2ccccn2)cc1)c1cc2ccccc2o1`, the Activity [1] is reported as 2.2%, the Activity [2] is reported as 76.1% and the IC50 [3] is reported as 1070 nM.
